Results on nine compounds are retold here after patent publication US11203610B2, “2′3′ cyclic dinucleotides with phosphonate bond activating the sting adaptor protein” (INSTITUTE OF ORGANIC CHEMISTRY AND BIOCHEMISTRY ASCR, V.V.I., priority 2017, dated 2021).

Assay [1] addresses T1, WT STING (Homo sapiens, UniProt Q86WV6, H232R). Nature of the assay: Digitonin assay using 293T wtSTING-FL reporter cells. The format is cell-based. Conditions: 293T wtSTING-FL cells; 30 minutes in Digitonin buffer, then 5 hours; ISRE firefly luciferase reporter; 8-point dose-response curve; read-out: Digitonin assay EC50 (μmol · l^−1) WT STING. From the text: ISRE Reporter Plasmid (pGL64.27-4xISRE)
Two complementary oligonucleotides of the sequence […] […] […] […] […] The oligonucleotides were mixed in equal molar amounts, hybridized, and cleaved by restriction endonucleases HindIII (cat. #. R0104S, NEB, Ipswich, USA) and BglII (cat. #R0144S, NEB, Ipswich, USA). Ultimately, they were ligated into plasmid pGL4.27 (cat. #E6651, Promega, Madison, USA) linearized with the same enzymes. As result the sequence with four ISRE sites was placed upstream of the minimum promoter of firefly luciferase reporter gene.
After 5 minutes incubation at room temperature (RT), 250 μL of the mixture was added dropwise to the cells in one well. Cells were incubated 36 hours at 37° C. with 5% CO2, and then detached with 0.05% Trypsin and 0.22 g/L EDTA (both cat. #L0941, Biowest, Riverside, USA).
Transfected cells were seeded onto poly-D-lysine coated six well plates at density 50,000 cells per 1 cm^2 in DMEM medium with high glucose containing 10% heat inactivated FBS, 30 g/mL blasticidin (cat. #ant-bl-05, InvivoGen, San Diego, USA), 0.06 mg/ml Penicillin G and 0.1 mg/ml Streptomycin Sulfate (both cat. #. L0018, Biowest, Riverside, USA). The medium was replenished every 3-4 days until visible colonies of cells resistant to blasticidin were formed.
Blasticidin resistant cells stably expressing WT STING were further transfected with […] plasmid following the same procedure as described above. […] Homogeneous culture of stably double transfected cells was prepared by limiting dilution of cells in 96 well plates and wells with cells were selected that originated from a single cell.
The medium was removed next day and three fold serial dilutions of compounds in Digitonin buffer containing 50 mmol·l^−1 HEPES (cat. #H3375, Sigma Aldrich, Czech Republic) pH 7.0, 100 mmol·l^−1 KCl, 3 mmol·l^−1 MgCl2, 0.1 mmol·l^−1 DTT (cat. #D0632, Sigma Aldrich, Czech Republic), 85 mmol·l^−1 Sucrose (cat. #S7903, Sigma Aldrich, Czech Republic), 0.2% BSA (cat. #A2153, Sigma Aldrich, Czech Republic), 1 mmol·l^−1 ATP (cat. #A1852, Sigma Aldrich, Czech Republic), 0.1 mmol·l^−1 GTP (cat. #G8877, Sigma Aldrich, Czech Republic), and 10 μg/mL Digitonin A (cat. #D141, Sigma Aldrich, Czech Republic) were added to the cells. The buffer was removed after 30 minutes incubation at 37° C. with 5% CO2, the cells were washed once with 100 μl of cultivation medium, and 100 μl of medium was added to each well. The plates with cells were incubated for 5 hours at 37° C. with 5% CO2, 50 μl of the medium was removed and 30 μl of ONE-Glo™ Luciferase Assay System reagent (cat. #E6120, Promega, Madison, USA) was added to each well. Luminescence was read on Synergy H1 (Biotek, Winooski, USA).
(In general: A reporter such as luciferase makes a cellular process visible.)
Target sequence in this assay (Q86WV6 whole entry H232R): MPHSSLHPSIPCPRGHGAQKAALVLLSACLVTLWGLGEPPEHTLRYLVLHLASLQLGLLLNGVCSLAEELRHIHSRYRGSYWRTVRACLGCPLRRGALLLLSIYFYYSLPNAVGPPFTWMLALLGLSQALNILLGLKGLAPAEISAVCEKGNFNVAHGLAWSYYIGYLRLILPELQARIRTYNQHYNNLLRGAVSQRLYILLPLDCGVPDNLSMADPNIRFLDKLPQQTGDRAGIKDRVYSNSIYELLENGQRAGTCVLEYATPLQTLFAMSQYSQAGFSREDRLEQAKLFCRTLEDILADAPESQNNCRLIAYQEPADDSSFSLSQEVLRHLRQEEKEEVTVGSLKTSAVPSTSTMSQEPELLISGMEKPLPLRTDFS

Assay [2] has as its target T2, AQ STING (G230A-R293Q) (Homo sapiens, UniProt Q86WV6, G230A/H232R/R293Q).
T2 construct: truncated human WT STING or AQ STING (amino acid residues 140-343); 8xHis (N, cleaved yes); SUMO (N, cleaved yes); made in house; host or cells: E. coli Rosetta-gami B (DE3)
As to the kind of experiment: Differential Scanning Fluorimetry with AQ STING. The format is binding. Particulars: thermal shift vs STING apoprotein, 150 μM CDN, 0.1 mg/ml truncated human AQ STING, SYPRO Orange; for ΔTm at 150 µM: read-out: DSF ΔTm (° C.) AQ STING. As for the experimental part: (§1) WT STING and AQ STING Proteins
(§2) Purified PCR products were cleaved with restriction enzymes BamHI (cat. #R0136S, NEB, Ipswich, USA) and NotI (cat. #R0189S, NEB, Ipswich, USA) and cloned into the pSUMO vector linearized with the identical enzymes.
(§3) The resin was poured into a chromatography column, washed with 50 ml buffer A (50 mmol·l^−1 TrisCl (pH 8.0), 800 mmol·l^−1 NaCl, 3 mmol·l^−1 β-mercaptol; 10% glycerol; 20 mmol·l^−1 imidazole) and 8-His-SUMO tagged STING proteins were eluted with 15 ml buffer A containing 300 mmol·l^−1 imidazole. […] Proteins were concentrated with Amicon® Ultra-15 10 K device (cat. #UFC901008, Merck Millipore, Billerica, USA) and flash frozen in liquid N2.
(§4) Differential Scanning Fluorimetry with WT STING and AQ STING
(§5) 20 μL solutions of the reaction mixtures were pipetted in triplicates into 96 well optical reaction plates and thermal denaturation of samples were performed on real time PCR cycler (LightCycler® 480 Instrument II—Roche, Basel, Switzerland). The first derivative of the thermal denaturation curves was performed to calculate denaturing temperatures of STING—CDN complexes and STING apoproteins. The thermal shift for each CDN was calculated by subtracting the average denaturing temperature of STING apoprotein from the average denaturing temperature of STING CDN complex.

The target of assay [3] is T1, WT STING. As to the kind of experiment: Differential Scanning Fluorimetry with WT STING. The format is binding. Also noted: truncated human WT STING or AQ STING (amino acid residues 140-343); 8xHis (N, cleaved yes); SUMO (N, cleaved yes); made in house; host or cells: E. coli Rosetta-gami B (DE3). Conditions: thermal shift vs STING apoprotein, 150 μM CDN, 0.1 mg/ml truncated human WT STING, SYPRO Orange; for ΔTm at 150 µM: read-out: DSF ΔTm (° C.) WT STING. As for the experimental part:
as §1, §2, §3, §4, §5
Target sequence in this assay (Q86WV6 140-343 H232R): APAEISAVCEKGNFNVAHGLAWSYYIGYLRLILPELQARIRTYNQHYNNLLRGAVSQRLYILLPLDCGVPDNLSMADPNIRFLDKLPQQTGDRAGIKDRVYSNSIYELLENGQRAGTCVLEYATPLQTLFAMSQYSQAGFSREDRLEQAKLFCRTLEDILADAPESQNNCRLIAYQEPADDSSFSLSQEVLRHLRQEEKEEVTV
In general terms: In DSF a fluorescence change marks the thermal transition of the protein.

T2 sequence (Q86WV6 140-343 G230A/H232R/R293Q): as the sequence (Q86WV6 140-343 H232R) above, with G91A, R154Q counted along it

One may read the EC50 as the midpoint of the concentration-response curve. As usually defined, the ΔTm is the shift of the melting midpoint relative to a reference. With `Nc1ncnc2c1ncn2[C@@H]1O[C@@H]2COCP(=O)(O)O[C@@H]3[C@H](O)[C@@H](COP(=O)(O)O[C@H]2[C@H]1O)O[C@H]3n1cnc2c(N)ncnc21` [Compound 32, (1R,6S,7R,8R,10R,16R,17R,19R)-8,17-bis(6-amino-9H-purin-9-yl)-4,7,14,19-tetrahydroxy-3,5,9,12,15,18-hexaoxa-4λ^5,14λ^5-diphosphatricyclo[14.2.1.0^6,^10]nonadecane-4,14-dione], in assay [1], the EC50 amounted to 8 µM. For the same compound, the ΔTm at 150 µM worked out at 5.3 °C in assay [2] and 0.5 °C in assay [3].

For `CSc1ncnc2c1ncn2[C@@H]1O[C@@H]2COP(=O)(O)O[C@@H]3[C@H](O)[C@@H](OCP(=O)(O)O[C@H]2[C@H]1O)O[C@H]3n1cnc2c(=O)[nH]c(N)nc21` [Compound 51, (1R,6R,8R,9R,10S,15R,17R,18S)-17-(2-amino-6-oxo-6,9-dihydro-1H-purin-9-yl)-3,9,12,18-tetrahydroxy-8-[6-(methylsulfanyl)-9H-purin-9-yl]-2,4,7,11,14,16-hexaoxa-3λ^5,12λ^5-diphosphatricyclo[13.2.1.0^6,10]octadecane-3,12-dione], the EC50 in assay [1] is 0.01 µM. The ΔTm at 150 µM in assay [2] turned out to be 15.9 °C; in assay [3], 8.6 °C.

For `Nc1nc(N)c2ncn([C@@H]3O[C@@H]4COP(=O)(O)O[C@@H]5[C@H](O)[C@@H](OCP(=O)(O)O[C@H]4[C@H]3O)O[C@H]5n3cnc4c(=O)[nH]c(N)nc43)c2n1` [Compound 50, (1R,6R,8R,9R,10S,15R,17R,18S)-17-(2-amino-6-oxo-6,9-dihydro-1H-purin-9-yl)-8-(2,6-diamino-9H-purin-9-yl)-3,9,12,18-tetrahydroxy-2,4,7,11,14,16-hexaoxa-3λ^5,12λ^5-diphosphatricyclo[13.2.1.0^6,10]octadecane-3,12-dione], in assay [1], the EC50 was 0.02 µM. Besides, the figures for the ΔTm at 150 µM in assay [2] and in assay [3] were 17.5 °C and 11.9 °C, respectively.

For `Nc1ncnc2c1ncn2[C@@H]1O[C@@H]2OCP(=O)(O)O[C@@H]3[C@H](O)[C@@H](OCP(=O)(O)O[C@H]2[C@H]1O)O[C@H]3n1cnc2c(N)ncnc21` [Compound 30, (1R,6R,8R,9R,10S,15R,17R,18S)-8,17-bis(6-amino-9H-purin-9-yl)-3,9,12,18-tetrahydroxy-2,5,7,11,14,16-hexaoxa-3λ^5,12λ^5-diphosphatricyclo[13.2.1.0^6,^10]octadecane-3,12-dione], the EC50 in assay [1] is 6.7 µM. Besides, the ΔTm at 150 µM in assay [2] worked out at 6.4 °C; in assay [3], 0.8 °C.

With `Nc1nc2c(ncn2[C@@H]2O[C@@H]3OCP(=O)(O)O[C@H]4[C@@H](O)[C@H](n5cnc6c(N)ncnc65)O[C@@H]4COP(=O)(O)O[C@@H]2[C@@H]3F)c(=O)[nH]1` [Compound 60, (1S,6R,8R,9R,10S,15R,17R,18S)-17-(2-amino-6-oxo-6,9-dihydro-1H-purin-9-yl)-8-(6-amino-9H-purin-9-yl)-18-fluoro-3,9,12-trihydroxy-2,4,7,11,14,16-hexaoxa-3λ^5,12λ^5-diphosphatricyclo[13.2.1.0^6,10]octadecane-3,12-dione], the EC50 in assay [1] was found to be 0.012 µM. Moreover, the thermal shift (ΔTm) at 150 µM in assay [2] is 24 °C; in assay [3] it was 18.1 °C.

`Nc1nc2c(ncn2[C@@H]2O[C@@H]3OCP(=O)(O)O[C@H]4[C@@H](F)[C@H](n5cnc6c(N)ncnc65)O[C@@H]4COP(=O)(O)O[C@@H]2[C@@H]3O)c(=O)[nH]1` [Compound 46, (1R,6R,8R,9R,10R,15R,17R,18S)-17-(2-amino-6-oxo-6,9-dihydro-1H-purin-9-yl)-8-(6-amino-9H-purin-9-yl)-9-fluoro-3,12,18-trihydroxy-2,4,7,11,14,16-hexaoxa-3λ^5,12λ^5-diphosphatricyclo[13.2.1.0^6,10]octadecane-3,12-dione]: the EC50 in assay [1] amounted to 0.01 µM. The shift in melting temperature (ΔTm) at 150 µM in assay [2] is 26.2 °C; in assay [3], 18.7 °C.

In the case of `Nc1nc2c(ncn2[C@@H]2O[C@@H]3OCP(=O)(O)O[C@H]4[C@@H](F)[C@H](n5cnc6c(N)nc(F)nc65)O[C@@H]4COP(=O)(O)O[C@@H]2[C@@H]3O)c(=O)[nH]1` [Compound 54, (1R,6R,8R,9R,10R,15R,17R,18S)-8-(6-amino-2-fluoro-9H-purin-9-yl)-17-(2-amino-6-oxo-6,9-dihydro-1H-purin-9-yl)-9-fluoro-3,12,18-trihydroxy-2,4,7,11,14,16-hexaoxa-3λ^5,12λ^5-diphosphatricyclo[13.2.1.0^6,10]octadecane-3,12-dione], in assay [1], the concentration for a half-maximal effect (EC50) was found to be 0.012 µM. Also, the thermal shift (ΔTm) at 150 µM in assay [2] came out at 19.9 °C; in assay [3] it was 13 °C.

Turning to `Cc1cn([C@@H]2O[C@@H]3COP(=O)(O)O[C@@H]4[C@@H](OCP(=O)(O)O[C@@H]2[C@@H]3O)O[C@@H](n2cnc3c(N)ncnc32)[C@@H]4O)c2nc(N)[nH]c(=O)c12` [Compound 42, (1R,6R,8R,9R,10S,15R,17R,18R)-17-{2-amino-5-methyl-4-oxo-3H,4H,7H-pyrrolo[2,3-d]pyrimidin-7-yl}-8-(6-amino-9H-purin-9-yl)-3,9,12,18-tetrahydroxy-2,5,7,11,13,16-hexaoxa-3λ^5,12λ^5-diphosphatricyclo[13.2.1.0^6,10]octadecane-3,12-dione], the 50% effective concentration (EC50) in assay [1] worked out at 45.4 µM. The values for the ΔTm at 150 µM in assay [2] and in assay [3] were 2.1 °C and 0.1 °C, respectively.

Consider `Nc1ncnc2c1ncn2[C@@H]1O[C@@H]2COP(=O)(O)O[C@H]3[C@@H](O)[C@H](n4cnc5c(N)ncnc54)O[C@@H]3COP(=O)(O)O[C@H]2[C@H]1O` [3′3′c-di-AMP, reference compound], for which the EC50 in assay [1] amounted to 0.3 µM. Moreover, the “DSF ΔTm (° C.) AQ STING” value in assay [2] stood at 9.3 °C. For the same compound, in assay [3], the “DSF ΔTm (° C.) WT STING” value was 2.6 °C.
